pEC50: −log10 of the molar value. Where a name gives a salt, the structure may show the parent alone.
system: rat embryo ventral mesencephalic cells; experiment: Neuroprotection assay (NMDA neuroexcitotoxic injury, high affinity 3H-dopamine uptake); format: cell-based, Sprague-Dawley rat; settings: embryonic day 15 rat VM cell culture, NMDA (100-400 μM) for 20 hours
Text: The neuroprotective activity of the compounds of this invention may be assayed using rat embryo ventral mesencephalic cells in culture which are subsequently exposed to the glutamate receptor agonist NMDA. This assay is described in detail in the example section.
The ventral mesencephalic region was dissected out of embryonic day 15 Sprague-Dawley rat embryos (Harlan), dissociated into single cell suspension by a combination of trypsinization and trituration (Costantini et al., Neurobiol Dis., pp. 97-106 (1998). Dissociated VM cells were plated into poly-L-ornithine-coated 96-well plates at a density of 85,000 cells/well in 100 uL of DMEM supplemented with 18% heat-inactivated horse serum, 0.24% glucose, 2 mM glutamine and 50 u/ml penicillin/streptomycin and incubated in a 5% CO2 incubator. After one day in culture (DIV1), the medium was replaced with 100 μL of a defined medium (DMEM supplemented with 1× N2 cocktail (Gibco-BRL), 0.12% glucose, 2 mM glutamine, and 50 units/ml penicillin/streptomycin) containing DMSO or various concentrations of the compounds of this invention. On DIV5, neuroexcitotoxic injury was induced by the addition of various concentrations of the glutamate receptor agonist NMDA (100-400 μM). Cultures were incubated with the neurotoxin for 20 hours and the effects of neurophilin compounds were assessed using high affinity ^3H-dopamine uptake according to a procedure published by Park and Mytilineou [Brain Res., 599, pp. 83-97 (1992)].

Row | SMILES | pEC50
1 | CCN1CCCC[C@H]1C(=O)N1CCN(C(c2ccccc2)c2ccc(F)cc2)CC1 (stereo partly drawn) [Compound 42, ((2S)-1-Ethylpiperidin-2-yl)-{4-[(4-fluorophenyl)phenylmethy]-piperazin-1-yl}-methanone dihydrochloride] | > 7.00
2 | O=C([C@@H]1CCCN1Cc1ccc(F)cc1)N1CCC(Cc2ccc(F)cc2)CC1 [Compound 271] | > 7.00
3 | CCN1CCCC[C@H]1C(=O)N1CCN(CCCc2ccccc2)CC1 [Compound 70, ((2S)-1-Ethylpiperidin-2-yl)-[4-(3-phenylpropyl)-piperazin-1-yl]-methanone dihydrochloride] | 6.30 to 7.00
4 | CN1CCC(C(=O)N2CCN(C(c3ccccc3)c3ccccc3)CC2)CC1 [Compound 11] | < 6.30
5 | O=C([C@@H]1CCCN1C/C=C/c1ccccc1)N1CCC(Cc2ccc(F)cc2)CC1 [Compound 269] | 6.30 to 7.00
6 | CCN1CCCC[C@H]1C(=O)N1CCN(c2ccccc2)CC1 [Compound 39, ((2S)-1-Ethylpiperidin-2-yl)-(4-phenylpiperazin-1-yl)-methanone dihydrochloride] | > 7.00
7 | O=C([C@@H]1C=CCN1Cc1ccccc1)N1CCN(C(c2ccc(F)cc2)c2ccc(F)cc2)CC1 [Compound 237] | < 6.30
8 | CCN1[C@@H](C(=O)N2CCN(C(c3ccc(F)cc3)c3ccc(F)cc3)CC2)CC[C@H]1c1ccccc1 [Compound 213] | < 6.30
9 | CCN1CCCC[C@H]1C(=O)N1CCN(Cc2ccc(Cl)cc2)CC1 [Compound 72, [4-(4-Chlorobenzyl)-piperazin-1-yl]-((2S)-1-ethylpiperidin-2-yl)-methanone dihydrochloride] | < 6.30
10 | CCN1CCCC[C@H]1CN1CCN(C(c2ccc(F)cc2)c2ccc(F)cc2)CC1 [Compound 102, 1-[Bis-(4-fluorophenyl)methyl)-4-((2S)-1-ethylpiperidin-2-ylmethyl)-piperazine.] | > 7.00
11 | CCN1CCC[C@H]1C(=O)N1CCC(Cc2ccc(F)cc2)CC1 [Compound 259] | 6.30 to 7.00
12 | O=C([C@@H]1CCCN1CC1CC1)N1CCC(Cc2ccc(F)cc2)CC1 [Compound 267] | > 7.00
13 | CCN1CCC[C@]1(C)C(=O)N1CCC(Cc2ccccc2)CC1 [Compound 242] | > 7.00
14 | O=C([C@@H]1CCCN1Cc1ccc(F)c(F)c1)N1CCC(Cc2ccc(F)cc2)CC1 [Compound 277] | > 7.00
15 | C[C@H]1CCN(Cc2ccccc2)[C@@H]1C(=O)N1CCC(Cc2ccccc2)CC1 [Compound 223] | > 7.00
16 | C[C@H]1CCN(Cc2ccccc2)[C@@H]1C(=O)N1CCN(C(c2ccc(F)cc2)c2ccc(F)cc2)CC1 [Compound 241] | < 6.30
17 | O=C([C@@H]1[C@H](c2ccccc2)CCN1Cc1ccccc1)N1CCC(Cc2ccccc2)CC1 [Compound 235] | < 6.30
18 | Cc1ccc(CN2CCC[C@H]2C(=O)N2CCC(Cc3ccc(F)cc3)CC2)cc1 [Compound 275] | > 7.00
19 | CC1CC[C@@H](C(=O)N2CCN(C(c3ccc(F)cc3)c3ccc(F)cc3)CC2)N1Cc1ccccc1 (stereo partly drawn) [Compound 243] | < 6.30
20 | C[C@@]1(C(=O)N2CCN(C(c3ccc(F)cc3)c3ccc(F)cc3)CC2)CCCN1Cc1ccccc1 [Compound 245] | 6.30 to 7.00

Row | SMILES | pEC50
21 | O=C([C@H]1CC[C@@H](c2ccccc2)N1Cc1ccccc1)N1CCC(Cc2ccccc2)CC1 [Compound 231] | 6.30 to 7.00
22 | O=C1C[C@@H](C(=O)N2CCC(Cc3ccccc3)CC2)N(Cc2ccccc2)C1 [Compound 29, (2S)-1-Benzyl-5-(4-benzylpiperidine-1-carbonyl)-pyrrolidin-3-one] | 6.30 to 7.00
23 | CCN1CC[C@@H](c2ccccc2)[C@H]1C(=O)N1CCN(C(c2ccc(F)cc2)c2ccc(F)cc2)CC1 [Compound 217] | < 6.30
24 | O=C([C@@H]1CC[C@H](c2ccccc2)N1Cc1ccccc1)N1CCN(C(c2ccc(F)cc2)c2ccc(F)cc2)CC1 [Compound 249] | < 6.30
25 | CN1CCC[C@H]1C(=O)N1CCN(C(c2ccccc2)c2ccccc2)CC1 [Compound 8] | < 6.30
26 | O=C([C@@H]1C[C@@H](c2ccccc2)CN1Cc1ccccc1)N1CCN(C(c2ccc(F)cc2)c2ccc(F)cc2)CC1 [Compound 251] | < 6.30
27 | CCN1CCCC[C@H]1C(=O)N1C[C@@H]2C[C@H]1CN2C(c1ccccc1)c1ccccc1 [Compound 17, 1-[(1S, 4S)-5-(1,1-Diphenylmethyl)-5-diazabicyclo[2.2.1]-hept-2-yl]-1-((S)-1-ethylpiperidin-2-yl)methanone] | 6.30 to 7.00
28 | CCN1C[C@H]2C[C@@H]2C1C(=O)N1CCC(Cc2ccccc2)CC1 (stereo partly drawn) [Compound 236] | 6.30 to 7.00
29 | O=C([C@@H]1CCCN1Cc1cccc(F)c1)N1CCC(Cc2ccc(F)cc2)CC1 [Compound 279] | > 7.00
30 | CN1[C@@H](C(=O)N2CCC(Cc3ccccc3)CC2)CC[C@H]1c1ccccc1 [Compound 206] | > 7.00
31 | CCN1CC[C@H](C)[C@H]1C(=O)N1CCN(C(c2ccc(F)cc2)c2ccc(F)cc2)CC1 [Compound 205] | > 7.00
32 | O=C([C@@H]1[C@H](c2ccccc2)CCN1Cc1ccccc1)N1CCN(C(c2ccc(F)cc2)c2ccc(F)cc2)CC1 [Compound 253] | < 6.30
33 | CC(C)=CCN1CCC[C@H]1C(=O)N1CCC(Cc2ccc(F)cc2)CC1 [Compound 265] | > 7.00
34 | O=C(C1CCN(Cc2ccccc2)CC1)N1CCC(Cc2ccc(F)cc2)CC1 [Compound 272] | 6.30 to 7.00
35 | CCN1C[C@H]2C[C@@H]2C1C(=O)N1CCN(C(c2ccc(F)cc2)c2ccc(F)cc2)CC1 (stereo partly drawn) [Compound 203] | 6.30 to 7.00
36 | CCN1C[C@H](c2ccccc2)C[C@H]1C(=O)N1CCN(C(c2ccc(F)cc2)c2ccc(F)cc2)CC1 [Compound 215] | < 6.30
37 | CCN1CCCC[C@H]1C(=O)N1CCN(Cc2cccs2)CC1 [Compound 73, ((2S)-1-Ethylpiperidin-2-yl)-(4-thiophen-2-ylmethylpiperazin-1-yl)-methanone dihydrochloride] | < 6.30
38 | CCN1CCCC[C@H]1C(=O)N1CCN(c2ccccn2)CC1 [Compound 2] | < 6.30
39 | CCN1[C@@H](C(=O)N2CCC(Cc3ccccc3)CC2)CC[C@H]1c1ccccc1 [Compound 246] | > 7.00
40 | CCN1CCCC[C@H]1C(=O)N1C[C@@H]2C[C@H]1CN2Cc1ccccc1 (stereo in doubt) [Compound 24, 1-(5-benzyl-2,5-diaza-bicyclo[2.2.1]-hept-2-yl)-1-((S)-1-ethyl-piperidino-2-yl)-methanone] | < 6.30

Row | SMILES | pEC50
41 | CCN1CCC[C@]1(C)C(=O)N1CCN(C(c2ccc(F)cc2)c2ccc(F)cc2)CC1 [Compound 209] | 6.30 to 7.00
42 | C=CCN1CCCC[C@H]1C(=O)N1CCN(C(c2ccc(F)cc2)c2ccc(F)cc2)CC1 [Compound 64, ((2S)-1-Allylpiperidin-2-yl)-{4-[bis-(4-fluorophenyl)methyl]-piperazin-1-yl}-methanone] | < 6.30
43 | CN1CSC(C)(C)[C@@H]1C(=O)N1CCN(C(c2ccc(F)cc2)c2ccc(F)cc2)CC1 [Compound 230] | < 6.30
44 | CCN1C(C)CC[C@H]1C(=O)N1CCN(C(c2ccc(F)cc2)c2ccc(F)cc2)CC1 (stereo partly drawn) [Compound 207] | 6.30 to 7.00
45 | C[C@@]1(C(=O)N2CCC(Cc3ccccc3)CC2)CCCN1Cc1ccccc1 [Compound 229] | < 6.30
46 | CN1CCC=C(C(=O)N2CCN(C(c3ccccc3)c3ccccc3)CC2)C1 [Compound 4] | < 6.30
47 | O=C([C@@H]1CCCN1Cc1ccccc1)N1CCN(C(c2ccccc2)c2ccccc2)CC1 [Compound 7] | > 7.00
48 | CCN1C(C)CC[C@H]1C(=O)N1CCC(Cc2ccccc2)CC1 (stereo partly drawn) [Compound 240] | > 7.00
49 | CCN1CC=C[C@H]1C(=O)N1CCN(C(c2ccc(F)cc2)c2ccc(F)cc2)CC1 [Compound 201] | < 6.30
50 | CCN1CSC[C@H]1C(=O)N1CCC(Cc2ccccc2)CC1 [Compound 244] | < 6.30
51 | CCN1CC[C@H]1C(=O)N1CCC(Cc2ccccc2)CC1 [Compound 232] | 6.30 to 7.00
52 | CC1CC[C@@H](C(=O)N2CCC(Cc3ccccc3)CC2)N1Cc1ccccc1 (stereo partly drawn) [Compound 227] | 6.30 to 7.00
53 | CCN1[C@@H](c2ccccc2)CC[C@H]1C(=O)N1CCC(Cc2ccccc2)CC1 [Compound 248] | 6.30 to 7.00
54 | CN1C[C@H](c2ccccc2)C[C@H]1C(=O)N1CCN(C(c2ccc(F)cc2)c2ccc(F)cc2)CC1 [Compound 224] | < 6.30
55 | CCN1CC[C@@H](c2ccccc2)[C@H]1C(=O)N1CCC(Cc2ccccc2)CC1 [Compound 252] | < 6.30
56 | O=C(C1CCN(CC2CC2)CC1)N1CCC(Cc2ccc(F)cc2)CC1 [Compound 278] | > 7.00
57 | O=C([C@@H]1CCCN1Cc1ccccc1)N1CCN(C(c2ccc(F)cc2)c2ccc(F)cc2)CC1 [Compound 51, ((2S)-1-Benzylpyrrolidin-2-yl)-{4-bis-(4-fluorophenyl)methyl]-piperazin-1-yl}-methanone dihydrochloride] | < 6.30
58 | O=C([C@H]1CC[C@@H](c2ccccc2)N1Cc1ccccc1)N1CCN(C(c2ccc(F)cc2)c2ccc(F)cc2)CC1 [Compound 247] | < 6.30
59 | C=CCN1CCC[C@H]1C(=O)N1CCC(Cc2ccc(F)cc2)CC1 [Compound 263] | > 7.00
60 | O=C(C1[C@H]2C[C@@H]2CN1Cc1ccccc1)N1CCN(C(c2ccc(F)cc2)c2ccc(F)cc2)CC1 (stereo partly drawn) [Compound 239] | < 6.30
